Columns and labels:
[1] = system: A431; test: Growth of cancer cells (Cell Titer-Glo viability), A431; type: cell-based; conditions: Homo sapiens, A-431; A431 (wild-type EGFR), 72 hrs; read-out: GI50
[2] = system: H1975; test: Effect on cell cycle (PI staining, flow cytometer), H1975; type: cell-based, human; conditions: H1975 (EGFR L858R/T790M), 24 hours
Excerpt: (§1) In order to study which growth phase the cell was halted after administration of the drugs, five cell lines including non-small cell lung cancer cell line A549 (expressing wild-type EGFR gene), non-small cell lung cancer cell line H1975 (expressing EGFR L858R/T790M double mutant gene), non-small cell Lung cancer cell line PC-9 (expressing EGFR delE746_A750 mutant gene), non-small cell lung cancer cell line H3255 (expressing EGFR L858R mutant gene) and non-small cell lung cancer cell NCI-H3122 (expressing ALK gene) were tested for effect of Compound 1 on cell cycle distribution. Two cell lines including non-small cell lung cancer cell NCI-H3122 (expressing ALK gene) and non-small cell lung cancer cell H1975 (expressing EGFR L858R/T790M double mutant gene) were tested for effect of Compound 10 on cell cycle distribution. […]

[3] = system: NCI-H1975; test: Growth of cancer cells (Cell Titer-Glo viability), NCI-H1975; type: cell-based; conditions: Homo sapiens; NCI-H1975 (EGFR L858R/T790M double mutant), 72 hrs
How it was run: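 Cells are counted as viable by CellTiter-Glo chemiluminescence. Murine BaF3 lines depend on a stably transfected TEL-fused kinase after IL-3 withdrawal, and the NSCLC lines express mutant EGFR.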

[4] = system: NCI-H2228; test: Growth of cancer cells (Cell Titer-Glo viability), NCI-H2228; type: cell-based; conditions: Homo sapiens; NCI-H2228 (wild-type ALK), 72 hrs
[5] = system: NCI-H3122; test: Growth of cancer cells (Cell Titer-Glo viability), NCI-H3122; type: cell-based; conditions: Homo sapiens; NCI-H3122 (expressing ALK gene), 72 hrs; read-out: GI50
[6] = system: A549; test: Growth of cancer cells (Cell Titer-Glo viability), A549; type: cell-based; conditions: Homo sapiens; A549 (wild-type EGFR), 72 hrs
[7] = system: BaF3-ALK-F1174L; test: Cell growth (Cell Titer-Glo viability), BaF3-ALK-F1174L; type: cell-based; conditions: Mus musculus; BaF3-ALK-F1174L (mutant ALK F1174L kinase), 72 hrs
How it was run: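 Proliferation assay: IL-3-independent BaF3 lines stably expressing TEL-fused human kinase (retroviral MSCV-Puro), plus EGFR-mutant NSCLC lines (HCC827 del19, NCI-H3255 L858R). Read-out: CellTiter-Glo luminescence of viable cells.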

[8] = system: A549; test: Effect on cell cycle (PI staining, flow cytometer), A549; type: cell-based, human; conditions: A549 (wild-type EGFR), 24 hours and 48 hours
Excerpt: as §1

GI50 [1] [nM]	GI50 [3] [nM]	GI50 [4] [nM]	GI50 [5] [nM]	GI50 [6] [nM]	GI50 [7] [nM]	SMILES	effect on cell cycle distribution [2]	effect on cell cycle [8]
170	15	< 3	< 0.3	510	1500	C=CC(=O)Nc1cc(Nc2ncc(Cl)c(Nc3ccccc3S(=O)(=O)C(C)C)n2)c(OC)cc1N1CCCN(C)CC1 [Compound 10, N-(5-(5-chloro-4-(2-(isopropylsulfonyl)phenylamino)pyrimidin-2-ylamino)-4-methoxy-2-(4-methyl-1,4-homopiperazin-1-yl)phenyl)acrylamide]	halt the cells in G0-G1 phase	
62	67			410		C=CC(=O)Nc1cc(Nc2ncc(Cl)c(Nc3ccccc3S(=O)(=O)C(C)C)n2)c(OC)cc1N1CCN(CC)CC1 [Compound 1, N-(5-(5-chloro-4-(2-(isopropylsulfonyl)phenylamino)pyrimidin-2-ylamino)-2-(4-ethylpiperazin-1-yl)-4-methoxyphenyl)acrylamide]	halt the cells in G0-G1 phase	certain effect
